Test results as given in US11274102B2, “Compounds useful in HIV therapy” (GLAXOSMITHKLINE INTELLECTUAL PROPERTY DEVELOPMENT LIMITED, priority 2017, dated 2022).
Read-outs that look alike come from different tables or passages of the source.

Columns and labels:
[1] = system: HIV-infected Jurkat cell clones (C16, 115 and N6); assay: Jurkat HIV Latency assay (HIV-expressed luciferase); format: cell-based; settings: Homo sapiens, averaged potency for HIV latency disruption in Jurkat HIV cells, 24 hours incubation, read-out: Jurkat Mean PXC50 (converted)
Method: For the Jurkat HIV Latency assay, compounds were dissolved and titrated in DMSO and diluted 100-fold in assay medium (RPMI-1640 containing 10% fetal bovine serum) containing an equal mixture of three HIV-infected Jurkat cell clones (C16, 115 and N6) at a total concentration of 1-2×10^5 cells/mL. To test stability, compounds are pre-incubated in assay medium for 48 hours at 37° C. prior to adding cells (48 hr EC50). Compounds that induce HIV expression result in a dose-dependent production of the HIV expressed luciferase enzyme. After the incubation of cells with compound for 24 hours at 37° C., HIV activation and cytotoxicity are determined by measuring luminescence after the addition of Promega Steady-Glo® Luciferase Assay reagent or CellTiter-Glo® Luminescent Cell Viability Assay reagent, respectively.

[2] = system: CD4+ T cells from HIV-infected donors; assay: HIV latency disruption in primary patient CD4+ T cells (HIV gag RNA by RT-qPCR); format: cell-based; settings: Homo sapiens
Method: For the assessment of compound activity in primary patient cells, PBMCs were obtained by continuous-flow leukapheresis from HIV-infected, antiretrovirally-treated, aviremic patients whose plasma HIV-1 RNA was less than 50 copies/mL at the time of collection. PBMCs were isolated by Ficoll-Hypaque density gradient centrifugation and cryopreserved in the vapor phase of liquid nitrogen. On the day of assay, cells were rapidly thawed to room temperature in a 37° C. water bath and total CD4+ T cells were isolated by negative selection (Stemcell Technologies). CD4+ T cells were reconstituted in assay medium (RPMI-1640 containing 10% fetal bovine serum, 10 ug/mL Fuzeon® and 200 nM Rilpivirin) and 5×10^6 were plated onto 2 mL 96-well polypropylene plates. Compounds were dissolved in DMSO, diluted 1:250 into assay medium and then titrated into assay medium supplemented with 0.4% DMSO with a minimum of 3 biological replicates per each treatment condition. Compound titrations were transferred to the cells and the assay plates were incubated at 37° C. for 24 hours. Following incubation, the assay plates were centrifuged at 400×g for 10 minutes and the cell-free supernatants were removed and discarded. The nucleic acid from the cell pellets were extracted, purified and segregated into RNA and DNA components using AllPrep DNA/RNA 96-well kits (Qiagen). HIV reactivation was quantified from the RNA fraction by one-step RT-qPCR (applied Biosystems) using primers and probe that target gag messenger RNA. HIV copies were calculated based on extrapolations from standard curves generated with known quantities of synthetic target HIV gag DNA in the same PCR reaction plate as the samples. A minimum of 3 technical RT-qPCR replicates were run for each biological replicate.
Data were normalized and modeled accordingly raw data were used to calculate the absolute number of HIV-gag RNA copies per million CD4+ T cells, with the value for each compound and concentration based on the averaged value of 3 to 5 biological replicates, with each biological replicate value being the average of 3 technical RT-qPCR replicates.
The dose-response curve was fit to an unconstrained four parameter logistic equation, defined as: y=Vmax{1−[x^n÷(K^n+x^n)]}+Y2 • Where: • x=compound concentration • y=normalized response data • Vmax=upper bound of response • K=EC50 • Y2=lower bound or baseline of response • n=hill coefficient
An example of dose-response HIV latency disruption in vitro is presented in FIG. 1 comparing the compound of invention (Example-1) to the compound of prior art (Compound-A) in peripheral blood CD4+ T cells from a HIV-infected fully-suppressed subject. […]

[3] = average potency from multiple donors, CD4+ T cells from HIV-infected donors, 24 hours, gag RNA, read-out: CD4 Mean PXC50 (converted)

| Compound | EC50 [1] | EC50 ([2]; FIG. 1, peripheral blood CD4+ T cells from a HIV-infected fully-suppressed subject, cell-associated HIV gag RNA, 4-parameter logistic regression, read-out: EC50) | EC50 [2, 3] |
| --- | --- | --- | --- |
| O=C1CCCN1Cc1nnc(Sc2ncnc3occ(-c4cccs4)c23)o1 [Example 6, 1-((5-((5-(thiophen-2-yl)furo[2,3-d]pyrimidin-4-yl)thio)-1,3,4-oxadiazol-2-yl)methyl)pyrrolidin-2-one] | 902 nM | – | – |
| O=C1CCCN1Cc1nnc(Sc2ncnc3occ(-c4ccc(Cl)cc4)c23)o1 [Example 1, 1-((5-((5-(4-chlorophenyl)furo[2,3-d]pyrimidin-4-yl)thio)-1,3,4-oxadiazol-2-yl)methyl)pyrrolidin-2-one] | 632 nM | 47 nM | 35.7 nM |
| O=C1CCCN1Cc1nnc(Sc2ncnc3occ(-c4ccco4)c23)o1 [Example 4, 1-((5-((5-(furan-2-yl)furo[2,3-d]pyrimidin-4-yl)thio)-1,3,4-oxadiazol-2-yl)methyl)pyrrolidin-2-one] | 491 nM | – | 15 nM |
| Cc1ccc(-c2coc3ncnc(Sc4nnc(CN5CCCC5=O)o4)c23)s1 [Example 7, 1-((5-((5-(5-methylthiophen-2-yl)furo[2,3-d]pyrimidin-4-yl)thio)-1,3,4-oxadiazol-2-yl)methyl)pyrrolidin-2-one] | 625 nM | – | 390 nM |
